Test results published in patent US8580794B2 (AbbVie Inc., priority 2009, dated 2013).

biological target: GST-Bc1-2 (Homo sapiens, UniProt P10415); assay: Time Resolved-Fluorescence Resonance Energy Transfer (TR-FRET) Bcl-2 binding assay with F-Bak peptide probe; conditions: GST-Bcl-2 1 nM, F-Bak probe 100 nM, Tb-anti-GST 1 nM; '<' = below limit of detection; read-out: TR-FRET Bcl-2 Binding Ki
Sequence (P10415 whole entry): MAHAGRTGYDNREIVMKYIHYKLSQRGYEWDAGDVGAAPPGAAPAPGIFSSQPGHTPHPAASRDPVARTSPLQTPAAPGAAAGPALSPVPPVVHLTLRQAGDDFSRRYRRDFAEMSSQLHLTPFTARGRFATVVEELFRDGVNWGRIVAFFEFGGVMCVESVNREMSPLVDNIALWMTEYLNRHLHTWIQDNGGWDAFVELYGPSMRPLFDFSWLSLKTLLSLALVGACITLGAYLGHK

| SMILES | Ki |
| --- | --- |
| CC1(C)CCC(CN2CCN(c3ccc(C(=O)NS(=O)(=O)c4ccc(N[C@H]5CC[C@H](N6CCOCC6)CC5)c([N+](=O)[O-])c4)c(Oc4ccc5[nH]ccc5c4)c3)CC2)=C(c2ccc(Cl)cc2)C1 [Example 19, Trans-4-(4-{[2-(4-chlorophenyl)-4,4-dimethylcyclohex-1-en-1-yl]methyl}piperazin-1-yl)-2-(1H-indol-5-yloxy)-N-({4-[(4-morpholin-4-ylcyclohexyl)amino]-3-nitrophenyl}sulfonyl)benzamide] | 0.226 nM |
| CC1(C)CCC(CN2CCN(c3ccc(C(=O)NS(=O)(=O)c4ccc5ccccc5c4)c(Oc4cnc5[nH]ccc5c4)c3)CC2)=C(c2ccc(Cl)cc2)C1 [Example 14, 4-(4-{[2-(4-chlorophenyl)-4,4-dimethylcyclohex-1-en-1-yl]methyl}piperazin-1-yl)-N-(2-naphthylsulfonyl)-2-(1H-pyrrolo[2,3-b]pyridin-5-yloxy)benzamide] | 2.8 nM |
| CC1(C)CCC(CN2CCN(c3ccc(C(=O)NS(=O)(=O)c4ccc(N[C@H]5CCN(C6CCOCC6)C5)c([N+](=O)[O-])c4)c(Oc4cnc5[nH]ccc5c4)c3)CC2)=C(c2ccc(Cl)cc2)C1 [Example 132, 4-(4-{[2-(4-chlorophenyl)-4,4-dimethylcyclohex-1-en-1-yl]methyl}piperazin-1-yl)-N-[(3-nitro-4-{[(3S)-1-tetrahydro-2H-pyran-4-ylpyrrolidin-3-yl]amino}phenyl)sulfonyl]-2-(1H-pyrrolo[2,3-b]pyridin-5-yloxy)benzamide] | < 0.01 nM |
| CC1(C)CCC(CN2CCN(c3ccc(C(=O)NS(=O)(=O)c4ccc(NCC5CNCCO5)c([N+](=O)[O-])c4)c(Oc4cnc5[nH]ccc5c4)c3)CC2)=C(c2ccc(Cl)cc2)C1 (stereo not shown) [Example 113, 4-(4-{[2-(4-chlorophenyl)-4,4-dimethylcyclohex-1-en-1-yl]methyl}piperazin-1-yl)-N-({4-[(morpholin-2-ylmethyl)amino]-3-nitrophenyl}sulfonyl)-2-(1H-pyrrolo[2,3-b]pyridin-5-yloxy)benzamide] | < 0.01 nM |
| CC1(C)CCC(CN2CCN(c3ccc(C(=O)NS(=O)(=O)c4ccc(NCc5cccc(O)c5)c([N+](=O)[O-])c4)c(Oc4cnc5[nH]ccc5c4)c3)CC2)=C(c2ccc(Cl)cc2)C1 [Example 186, 4-(4-{[2-(4-chlorophenyl)-4,4-dimethylcyclohex-1-en-1-yl]methyl}piperazin-1-yl)-N-({4-[(3-hydroxybenzyl)amino]-3-nitrophenyl}sulfonyl)-2-(1H-pyrrolo[2,3-b]pyridin-5-yloxy)benzamide] | 0.047 nM |
| O=C(NS(=O)(=O)c1ccc(NCC2CCOCC2)c([N+](=O)[O-])c1)c1ccc(N2CCN(CC3=C(c4ccc(Cl)cc4)CCC(F)(F)C3)CC2)cc1Oc1cnc2[nH]ccc2c1 [Example 321, 4-(4-{[2-(4-chlorophenyl)-5,5-difluorocyclohex-1-en-1-yl]methyl}piperazin-1-yl)-N-({3-nitro-4-[(tetrahydro-2H-pyran-4-ylmethyl)amino]phenyl}sulfonyl)-2-(1H-pyrrolo[2,3-b]pyridin-5-yloxy)benzamide] | < 0.01 nM |
| CC1(C)CCC(CN2CCN(c3ccc(C(=O)NS(=O)(=O)c4ccc(NCC5CCCN(S(C)(=O)=O)C5)c([N+](=O)[O-])c4)c(Oc4cnc5[nH]ccc5c4)c3)CC2)=C(c2ccc(Cl)cc2)C1 (stereo not shown) [Example 147, 4-(4-{[2-(4-chlorophenyl)-4,4-dimethylcyclohex-1-en-1-yl]methyl}piperazin-1-yl)-N-{[4-({[1-(methylsulfonyl)piperidin-3-yl]methyl}amino)-3-nitrophenyl]sulfonyl}-2-(1H-pyrrolo[2,3-b]pyridin-5-yloxy)benzamide] | < 0.01 nM |
| CC1(C)CCC(CN2CCN(c3ccc(C(=O)NS(=O)(=O)c4ccc(NCC5CN(CC(F)F)CCO5)c([N+](=O)[O-])c4)c(Oc4cnc5[nH]ccc5c4)c3)CC2)=C(c2ccc(Cl)cc2)C1 (stereo not shown) [Example 166, 4-(4-{[2-(4-chlorophenyl)-4,4-dimethylcyclohex-1-en-1-yl]methyl}piperazin-1-yl)-N-{[4-({[4-(2,2-difluoroethyl)morpholin-2-yl]methyl}amino)-3-nitrophenyl]sulfonyl}-2-(1H-pyrrolo[2,3-b]pyridin-5-yloxy)benzamide] | < 0.01 nM |
| CC1(C)CCC(CN2CCN(c3ccc(C(=O)NS(=O)(=O)c4ccc(NCC5CN(C6COC6)CCO5)c([N+](=O)[O-])c4)c(Oc4cnc5[nH]ccc5c4)c3)CC2)=C(c2ccc(Cl)cc2)C1 (stereo not shown) [Example 217, 4-(4-{[2-(4-chlorophenyl)-4,4-dimethylcyclohex-1-en-1-yl]methyl}piperazin-1-yl)-N-{[3-nitro-4-({[4-(oxetan-3-yl)morpholin-2-yl]methyl}amino)phenyl]sulfonyl}-2-(1H-pyrrolo[2,3-b]pyridin-5-yloxy)benzamide] | < 0.01 nM |
| CC1(C)CCC(CN2CCN(c3ccc(C(=O)NS(=O)(=O)c4ccc(OCC5(F)CCOCC5)c(S(=O)(=O)C(F)(F)F)c4)c(Oc4cnc5[nH]ccc5c4)c3)CC2)=C(c2ccc(Cl)cc2)C1 [Example 220, 4-(4-{[2-(4-chlorophenyl)-4,4-dimethylcyclohex-1-en-1-yl]methyl}piperazin-1-yl)-N-({4-[(4-fluorotetrahydro-2H-pyran-4-yl)methoxy]-3-[(trifluoromethyl)sulfonyl]phenyl}sulfonyl)-2-(1H-pyrrolo[2,3-b]pyridin-5-yloxy)benzamide] | 0.988 nM |
| CC1(C)CCC(CN2CCN(c3ccc(C(=O)NS(=O)(=O)c4ccc(OCC5CCOC(C)(C)C5)c([N+](=O)[O-])c4)c(Oc4cnc5[nH]ccc5c4)c3)CC2)=C(c2ccc(Cl)cc2)C1 (stereo not shown) [Example 51, 4-(4-{[2-(4-chlorophenyl)-4,4-dimethylcyclohex-1-en-1-yl]methyl}piperazin-1-yl)-N-({4-[(2,2-dimethyltetrahydro-2H-pyran-4-yl)methoxy]-3-nitrophenyl}sulfonyl)-2-(1H-pyrrolo[2,3-b]pyridin-5-yloxy)benzamide] | < 0.01 nM |
| CC1(C)CCC(CN2CCN(c3ccc(C(=O)NS(=O)(=O)c4ccc(NCC5CN(S(C)(=O)=O)CCO5)c([N+](=O)[O-])c4)c(Oc4cnc5[nH]ccc5c4)c3)CC2)=C(c2ccc(Cl)cc2)C1 (stereo not shown) [Example 319, 4-(4-{[2-(4-chlorophenyl)-4,4-dimethylcyclohex-1-en-1-yl]methyl}piperazin-1-yl)-N-{[4-({[4-(methylsulfonyl)morpholin-2-yl]methyl}amino)-3-nitrophenyl]sulfonyl}-2-(1H-pyrrolo[2,3-b]pyridin-5-yloxy)benzamide] | < 0.01 nM |
| CC1(C)CCC(CN2CCN(c3ccc(C(=O)NS(=O)(=O)c4cnc(OCCC5CCOCC5)c(C#N)c4)c(Oc4cnc5[nH]ccc5c4)c3)CC2)=C(c2ccc(Cl)cc2)C1 [Example 278, 4-(4-{[2-(4-chlorophenyl)-4,4-dimethylcyclohex-1-en-1-yl]methyl}piperazin-1-yl)-N-({5-cyano-6-[2-(tetrahydro-2H-pyran-4-yl)ethoxy]pyridin-3-yl}sulfonyl)-2-(1H-pyrrolo[2,3-b]pyridin-5-yloxy)benzamide] | 0.252 nM |
| CN(C)CC(=O)N1CCC(COc2ncc(S(=O)(=O)NC(=O)c3ccc(N4CCN(CC5=C(c6ccc(Cl)cc6)CC(C)(C)CC5)CC4)cc3Oc3cnc4[nH]ccc4c3)cc2Cl)CC1 [Example 260, N-[(5-chloro-6-{[1-(N,N-dimethylglycyl)piperidin-4-yl]methoxy}pyridin-3-yl)sulfonyl]-4-(4-{[2-(4-chlorophenyl)-4,4-dimethylcyclohex-1-en-1-yl]methyl}piperazin-1-yl)-2-(1H-pyrrolo[2,3-b]pyridin-5-yloxy)benzamide] | 0.016 nM |

same assay, conditions: Table 4, selected compounds of Ser. No. 12/631,404; read-out: Bcl-2 FRET Ki

| SMILES | Ki |
| --- | --- |
| CC1(C)CCC(CN2CCN(c3ccc(C(=O)NS(=O)(=O)c4ccc(N[C@H]5CC[C@H](N6CCOCC6)CC5)c([N+](=O)[O-])c4)c(Oc4ccc5[nH]ccc5c4)c3)CC2)=C(c2ccc(Cl)cc2)C1 [Example 19, Trans-4-(4-{[2-(4-chlorophenyl)-4,4-dimethylcyclohex-1-en-1-yl]methyl}piperazin-1-yl)-2-(1H-indol-5-yloxy)-N-({4-[(4-morpholin-4-ylcyclohexyl)amino]-3-nitrophenyl}sulfonyl)benzamide] | 0.226 nM |

same assay, conditions: Table 5, direct comparison Z=N vs Z=C analogs; read-out: Bcl-2 FRET ki

| SMILES | Ki |
| --- | --- |
| CC1(C)CCC(CN2CCN(c3ccc(C(=O)NS(=O)(=O)c4ccc(N[C@H]5CC[C@H](N6CCOCC6)CC5)c([N+](=O)[O-])c4)c(Oc4ccc5[nH]ccc5c4)c3)CC2)=C(c2ccc(Cl)cc2)C1 [Example 19, Trans-4-(4-{[2-(4-chlorophenyl)-4,4-dimethylcyclohex-1-en-1-yl]methyl}piperazin-1-yl)-2-(1H-indol-5-yloxy)-N-({4-[(4-morpholin-4-ylcyclohexyl)amino]-3-nitrophenyl}sulfonyl)benzamide] | 0.226 nM |
